Experimental data reported in the NIST ThermoML archive (doi:10.1016/j.jct.2019.105883).

Experiment: xn = mol fraction of the nth substance listed
Details: 101.3 kPa, Liquid; for viscosity: Concentric cylinders viscometry; for mass density: Vibrating tube method

CCN.Cl [ethylammonium chloride] + CC(N)=O
Details | mass density, 313.2 K [kg/m3] | mass density, 323.2 K [kg/m3] | mass density, 333.2 K [kg/m3] | mass density, 343.2 K [kg/m3] | mass density, 353.2 K [kg/m3] | viscosity, 313.2 K [mPa·s] | viscosity, 323.2 K [mPa·s] | viscosity, 333.2 K [mPa·s] | viscosity, 343.2 K [mPa·s] | viscosity, 353.2 K [mPa·s]
x1 = 0.252 | 1041 | 1034.3 | 1027.6 | 1020.9 | 1014.2 | 32.6 | 27.8 | 21.9 | 18.4 | 15.2
x1 = 0.337 | 1042.8 | 1036.4 | 1030 | 1023.7 | 1017.3 | 58 | 39.2 | 29.1 | 23.3 | 18.6
x1 = 0.5 | 1043.8 | 1037.9 | 1032 | 1026.2 | 1020.4 | 71.5 | 48.4 | 35.8 | 28.2 | 23.5
